Measured values as given in US9340590B2 (priority 2011, dated 2016).
Where two headings read alike, the source gives them in different places. Positions of bridges follow the written chain, without caps; N, C: chain ends. Non-standard residues stand in square brackets, D forms with d. Residues, ends and D or L forms follow the SMILES beside them. 2Nal = N[C@@H](Cc1ccc2ccccc2c1)C(=O)O

Experiments:
Test in all cases: cell-based
[1] = molecular target: hNav1.7 (Homo sapiens, UniProt Q15858); format: cell-based; details: IonWorks Quattro, read-out: IWQ Use Nav1.7
Chain of hNav1.7 (Q15858 whole entry, looked up): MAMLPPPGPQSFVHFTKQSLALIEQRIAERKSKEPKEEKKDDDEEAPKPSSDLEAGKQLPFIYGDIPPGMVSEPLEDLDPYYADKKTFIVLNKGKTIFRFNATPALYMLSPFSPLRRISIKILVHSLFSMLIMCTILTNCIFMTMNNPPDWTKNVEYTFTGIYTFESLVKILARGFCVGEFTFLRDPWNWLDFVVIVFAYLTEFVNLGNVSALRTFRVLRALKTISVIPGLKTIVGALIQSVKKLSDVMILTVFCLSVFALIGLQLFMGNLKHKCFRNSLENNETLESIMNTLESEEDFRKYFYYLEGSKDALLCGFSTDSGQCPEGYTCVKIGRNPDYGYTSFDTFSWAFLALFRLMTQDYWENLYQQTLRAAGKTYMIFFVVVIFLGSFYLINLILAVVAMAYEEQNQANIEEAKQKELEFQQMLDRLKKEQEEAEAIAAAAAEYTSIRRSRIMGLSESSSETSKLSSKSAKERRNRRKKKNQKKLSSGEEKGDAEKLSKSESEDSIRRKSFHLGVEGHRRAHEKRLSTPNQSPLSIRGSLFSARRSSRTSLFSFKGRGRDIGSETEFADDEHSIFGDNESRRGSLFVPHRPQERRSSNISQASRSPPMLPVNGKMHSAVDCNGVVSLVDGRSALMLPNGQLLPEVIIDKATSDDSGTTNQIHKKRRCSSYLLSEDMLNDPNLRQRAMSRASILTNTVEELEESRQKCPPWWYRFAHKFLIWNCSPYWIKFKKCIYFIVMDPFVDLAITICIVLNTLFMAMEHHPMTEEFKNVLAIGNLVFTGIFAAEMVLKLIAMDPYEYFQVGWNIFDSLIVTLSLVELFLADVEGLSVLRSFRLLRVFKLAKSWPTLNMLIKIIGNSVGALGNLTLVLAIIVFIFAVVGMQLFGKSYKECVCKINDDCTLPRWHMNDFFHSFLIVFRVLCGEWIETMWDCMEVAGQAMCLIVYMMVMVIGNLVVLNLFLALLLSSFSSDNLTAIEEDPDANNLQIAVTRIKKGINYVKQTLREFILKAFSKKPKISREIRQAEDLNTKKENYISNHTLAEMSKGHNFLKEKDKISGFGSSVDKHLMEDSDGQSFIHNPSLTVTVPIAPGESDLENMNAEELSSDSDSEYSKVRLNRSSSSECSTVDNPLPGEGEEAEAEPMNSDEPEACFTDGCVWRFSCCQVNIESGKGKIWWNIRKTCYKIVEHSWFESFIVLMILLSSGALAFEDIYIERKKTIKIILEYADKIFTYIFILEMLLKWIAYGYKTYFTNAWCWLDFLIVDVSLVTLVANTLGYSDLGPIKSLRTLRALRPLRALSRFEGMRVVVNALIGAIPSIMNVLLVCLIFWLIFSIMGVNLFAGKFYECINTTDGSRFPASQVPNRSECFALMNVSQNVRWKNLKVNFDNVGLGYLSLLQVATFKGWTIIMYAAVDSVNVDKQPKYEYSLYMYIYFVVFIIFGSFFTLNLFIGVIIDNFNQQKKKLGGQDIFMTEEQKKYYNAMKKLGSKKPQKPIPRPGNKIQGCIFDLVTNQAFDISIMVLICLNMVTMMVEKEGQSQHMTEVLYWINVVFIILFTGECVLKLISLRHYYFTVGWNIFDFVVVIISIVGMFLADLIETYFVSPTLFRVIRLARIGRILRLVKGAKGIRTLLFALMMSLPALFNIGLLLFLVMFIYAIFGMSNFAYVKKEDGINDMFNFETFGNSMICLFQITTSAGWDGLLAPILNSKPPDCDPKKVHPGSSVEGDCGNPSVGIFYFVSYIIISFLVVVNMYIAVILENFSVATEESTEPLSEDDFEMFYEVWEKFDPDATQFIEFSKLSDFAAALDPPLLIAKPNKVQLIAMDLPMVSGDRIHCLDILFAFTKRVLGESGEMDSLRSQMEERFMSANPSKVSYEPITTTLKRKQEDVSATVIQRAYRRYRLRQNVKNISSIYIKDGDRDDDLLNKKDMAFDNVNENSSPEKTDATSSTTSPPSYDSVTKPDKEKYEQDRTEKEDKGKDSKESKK

[2] = molecular target: hNav1.5 (Homo sapiens, UniProt Q14524)
[3] = molecular target: hNav1.3 (Homo sapiens, UniProt Q9NY46); details: IonWorks Quattro, read-out: IWQ Use Nav1.3
Chain of hNav1.3 (Q9NY46 whole entry, looked up): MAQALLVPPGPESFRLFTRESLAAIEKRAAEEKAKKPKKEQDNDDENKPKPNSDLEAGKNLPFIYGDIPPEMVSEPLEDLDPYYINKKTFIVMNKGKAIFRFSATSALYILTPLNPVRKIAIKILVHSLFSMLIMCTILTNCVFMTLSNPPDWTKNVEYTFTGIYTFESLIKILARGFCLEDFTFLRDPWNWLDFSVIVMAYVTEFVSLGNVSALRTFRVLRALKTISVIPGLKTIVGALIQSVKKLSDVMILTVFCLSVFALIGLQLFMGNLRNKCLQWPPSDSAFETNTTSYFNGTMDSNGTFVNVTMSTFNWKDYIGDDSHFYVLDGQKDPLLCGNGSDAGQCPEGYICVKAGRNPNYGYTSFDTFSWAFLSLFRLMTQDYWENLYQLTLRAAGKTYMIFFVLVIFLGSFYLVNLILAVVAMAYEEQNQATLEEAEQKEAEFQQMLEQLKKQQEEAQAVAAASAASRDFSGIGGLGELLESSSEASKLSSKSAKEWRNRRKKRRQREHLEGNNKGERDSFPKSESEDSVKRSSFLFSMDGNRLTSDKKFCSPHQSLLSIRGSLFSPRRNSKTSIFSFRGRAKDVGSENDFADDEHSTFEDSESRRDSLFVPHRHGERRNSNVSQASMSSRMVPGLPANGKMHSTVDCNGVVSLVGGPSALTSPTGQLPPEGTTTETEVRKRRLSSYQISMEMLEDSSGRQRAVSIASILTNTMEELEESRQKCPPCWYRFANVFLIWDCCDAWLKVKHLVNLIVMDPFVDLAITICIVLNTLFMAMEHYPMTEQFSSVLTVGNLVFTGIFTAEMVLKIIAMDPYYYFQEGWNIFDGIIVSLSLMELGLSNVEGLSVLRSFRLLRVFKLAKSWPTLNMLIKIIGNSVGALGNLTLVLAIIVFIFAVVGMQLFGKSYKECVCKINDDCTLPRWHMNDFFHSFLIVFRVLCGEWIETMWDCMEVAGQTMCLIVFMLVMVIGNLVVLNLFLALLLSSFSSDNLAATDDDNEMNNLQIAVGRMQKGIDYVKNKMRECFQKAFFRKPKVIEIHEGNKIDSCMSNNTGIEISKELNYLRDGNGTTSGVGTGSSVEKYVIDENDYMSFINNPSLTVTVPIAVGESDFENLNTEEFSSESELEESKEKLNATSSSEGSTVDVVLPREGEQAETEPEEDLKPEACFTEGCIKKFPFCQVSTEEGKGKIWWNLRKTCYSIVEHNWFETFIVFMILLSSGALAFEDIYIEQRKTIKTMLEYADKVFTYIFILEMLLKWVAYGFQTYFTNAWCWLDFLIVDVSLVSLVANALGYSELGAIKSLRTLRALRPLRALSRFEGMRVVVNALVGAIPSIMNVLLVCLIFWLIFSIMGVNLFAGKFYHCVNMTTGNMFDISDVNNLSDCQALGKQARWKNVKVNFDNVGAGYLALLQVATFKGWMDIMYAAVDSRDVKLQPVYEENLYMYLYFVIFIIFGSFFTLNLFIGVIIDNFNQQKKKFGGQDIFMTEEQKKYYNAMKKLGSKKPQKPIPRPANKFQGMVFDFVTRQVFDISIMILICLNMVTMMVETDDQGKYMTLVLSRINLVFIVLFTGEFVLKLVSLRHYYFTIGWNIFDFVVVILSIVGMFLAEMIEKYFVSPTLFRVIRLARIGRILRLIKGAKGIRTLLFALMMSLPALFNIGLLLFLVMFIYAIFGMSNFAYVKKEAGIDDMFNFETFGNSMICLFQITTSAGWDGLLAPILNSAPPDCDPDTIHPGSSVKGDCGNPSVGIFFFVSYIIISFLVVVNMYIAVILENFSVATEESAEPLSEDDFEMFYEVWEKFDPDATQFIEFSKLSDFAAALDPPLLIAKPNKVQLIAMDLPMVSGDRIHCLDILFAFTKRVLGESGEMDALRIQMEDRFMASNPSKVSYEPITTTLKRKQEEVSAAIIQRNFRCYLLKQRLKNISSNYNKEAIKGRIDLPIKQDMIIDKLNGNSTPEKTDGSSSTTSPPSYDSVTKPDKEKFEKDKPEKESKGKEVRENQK

CC[C@H](C)[C@@H]1NC(=O)[C@@H]2CSSC[C@@H]3NC(=O)CNC(=O)[C@H](CC(C)C)NC(=O)[C@H](CC(N)=O)NC(=O)[C@@H]4CCCN4C(=O)[C@H](CCCNC(=N)N)NC(=O)[C@H](CSSC[C@H](NC(=O)[C@@H](N)CC(=O)O)C(=O)N[C@@H](CC(C)C)C(=O)NCC(=O)N[C@@H](Cc4ccccc4)C(=O)N[C@@H](CCSC)C(=O)N[C@@H](CCCNC(=N)N)C(=O)N[C@@H](CCCCN)C(=O)N2)NC(=O)[C@H](CSSC[C@@H](C(=O)N[C@@H](CCCCN)C(=O)N[C@@H](Cc2ccc(O)cc2)C(=O)N[C@H](C(=O)N[C@@H](Cc2ccccc2)C(N)=O)C(C)C)NC(=O)[C@H](Cc2c[nH]c4ccccc24)NC(=O)[C@H](CCCCN)NC(=O)[C@H](Cc2c[nH]cn2)NC(=O)[C@H]([C@@H](C)O)NC(=O)[C@H](CCCNC(=N)N)NC(=O)[C@H](CO)NC3=O)NC(=O)[C@H](CCCCN)NC(=O)[C@H](CC(=O)O)NC(=O)[C@H](CC(N)=O)NC(=O)[C@H](CC(=O)O)NC(=O)[C@@H]2CCCN2C1=O [compound 324] (H-DCLGFMRKCIPDNDKCCRPNLGCSRTHKWCKYVF-NH2; disulfide 2-17, 9-23, 16-30)
IC50 ([1]; Use): 140 nM | IC50 ([2]; IonWorks Quattro, Use, read-out: IWQ Use Nav1.5): 10.9 µM | IC50 ([3]; Use): 100 nM

CC[C@H](C)[C@@H]1NC(=O)[C@@H]2CSSC[C@@H]3NC(=O)[C@H](C(C)C)NC(=O)[C@H](CC(C)C)NC(=O)[C@H](CC(N)=O)NC(=O)[C@@H]4CCCN4C(=O)[C@H](CCCNC(=N)N)NC(=O)[C@H](CSSC[C@H](NC(=O)[C@@H](N)CC(=O)O)C(=O)N[C@@H](CC(C)C)C(=O)NCC(=O)N[C@@H](Cc4ccccc4)C(=O)N[C@@H](CCSC)C(=O)N[C@@H](CCCNC(=N)N)C(=O)N[C@@H](CCCCN)C(=O)N2)NC(=O)[C@H](CSSC[C@@H](C(=O)N[C@@H](CCCCN)C(=O)N[C@@H](Cc2ccc(O)cc2)C(=O)N[C@H](C(=O)N[C@@H](Cc2ccccc2)C(N)=O)C(C)C)NC(=O)[C@H](Cc2c[nH]c4ccccc24)NC(=O)[C@H](CCCCN)NC(=O)[C@H](Cc2c[nH]cn2)NC(=O)[C@H](CCC(N)=O)NC(=O)[C@H](CCCNC(=N)N)NC(=O)[C@H](CO)NC3=O)NC(=O)[C@H](CCCCN)NC(=O)[C@H](CC(=O)O)NC(=O)[C@H](CC(N)=O)NC(=O)[C@H](CC(=O)O)NC(=O)[C@@H]2CCCN2C1=O [compound 339] (H-DCLGFMRKCIPDNDKCCRPNLVCSRQHKWCKYVF-NH2; disulfide 2-17, 9-23, 16-30)
IC50 ([1]; Table 22, use, […]): 140 nM | IC50 ([2]; Table 22, IonWorks Quattro, use, […], read-out: IWQ Use Nav1.5): 17.9 µM | IC50 ([3]; Table 22, use, […]): 90 nM

CC(C)C[C@@H]1NC(=O)[C@@H](NC(=O)[C@@H](N)CC(=O)O)CSSC[C@@H]2NC(=O)[C@@H]3CSSC[C@@H](C(=O)N[C@@H](CCCCN)C(=O)N[C@@H](Cc4ccc(O)cc4)C(=O)N[C@H](C(=O)N[C@@H](Cc4ccccc4)C(N)=O)C(C)C)NC(=O)[C@H](Cc4c[nH]c5ccccc45)NC(=O)[C@H](CCCCN)NC(=O)[C@H](Cc4c[nH]cn4)NC(=O)[C@H]([C@@H](C)O)NC(=O)[C@H](CCCNC(=N)N)NC(=O)[C@H](CO)NC(=O)[C@H](CSSC[C@H](NC(=O)[C@H](CCCCN)NC(=O)[C@H](CCCNC(=N)N)NC(=O)[C@H](Cc4ccccc4)NC(=O)[C@H](C)NC(=O)CNC1=O)C(=O)N[C@@H](CC(=O)O)C(=O)N1CCC[C@H]1C(=O)N[C@@H](CC(=O)O)C(=O)N[C@@H](CC(N)=O)C(=O)N[C@@H](CC(=O)O)C(=O)N[C@@H](CCCCN)C(=O)N3)NC(=O)[C@H](C(C)C)NC(=O)[C@H](CC(C)C)NC(=O)[C@H](CC(N)=O)NC(=O)[C@@H]1CCCN1C(=O)[C@H](CCCNC(=N)N)NC2=O [compound 702] (H-DCLGAFRKCDPDNDKCCRPNLVCSRTHKWCKYVF-NH2; disulfide 2-17, 9-23, 16-30)
IC50 ([1]; use-dependent protocol, hNav1.7): 720 nM | IC50 ([2]; IonWorks Quattro, use-dependent protocol, hNav1.5, read-out: IWQ Use Nav1.5): 43 µM | IC50 ([3]; use-dependent protocol, hNav1.3): 370 nM

CC[C@H](C)[C@@H]1NC(=O)[C@@H]2CSSC[C@@H]3NC(=O)[C@H](C(C)C)NC(=O)[C@H](CC(C)C)NC(=O)[C@H](CC(N)=O)NC(=O)[C@@H]4CCCN4C(=O)[C@H](CCCNC(=N)N)NC(=O)[C@H](CSSC[C@H](NC(=O)[C@@H](N)CC(=O)O)C(=O)N[C@@H](CC(C)C)C(=O)NCC(=O)N[C@@H](Cc4ccccc4)C(=O)N[C@@H](CCSC)C(=O)N[C@@H](CCCNC(=N)N)C(=O)N[C@@H](CCCCN)C(=O)N2)NC(=O)[C@H](CSSC[C@@H](C(=O)N[C@@H](CCCCN)C(=O)N[C@@H](Cc2ccc(O)cc2)C(=O)N[C@H](C(=O)N[C@@H](Cc2ccccc2)C(N)=O)C(C)C)NC(=O)[C@H](Cc2ccc4ccccc4c2)NC(=O)[C@H](CCCCN)NC(=O)[C@H](Cc2c[nH]cn2)NC(=O)[C@H]([C@@H](C)O)NC(=O)[C@H](CCCNC(=N)N)NC(=O)[C@H](CO)NC3=O)NC(=O)[C@H](CCCCN)NC(=O)[C@H](CC(=O)O)NC(=O)[C@H](CC(N)=O)NC(=O)[C@H](CC(=O)O)NC(=O)[C@@H]2CCCN2C1=O [SEQ ID NO: 129, [2-Nal29]GpTx-1] (H-DCLGFMRKCIPDNDKCCRPNLVCSRTHK[2Nal]CKYVF-NH2; disulfide 2-17, 9-23, 16-30)
IC50 ([1]; Table 24, use, […]): 580 nM | IC50 ([2]; Table 24, IonWorks Quattro, use, […], read-out: IWQ Use Nav1.5): 11.7 µM | IC50 ([3]; Table 24, use, […]): 730 nM

CC[C@H](C)[C@@H]1NC(=O)[C@@H]2CSSC[C@@H]3NC(=O)[C@H](C(C)C)NC(=O)[C@H](CC(C)C)NC(=O)[C@H](CC(N)=O)NC(=O)[C@@H]4CCCN4C(=O)[C@H](CCCNC(=N)N)NC(=O)[C@H](CSSC[C@H](NC(=O)[C@@H](N)CC(=O)O)C(=O)N[C@@H](CC(C)C)C(=O)NCC(=O)N[C@@H](Cc4ccccc4)C(=O)N[C@@H](CCSC)C(=O)N[C@@H](CCCNC(=N)N)C(=O)N[C@@H](CCCCN)C(=O)N2)NC(=O)[C@H](CSSC[C@@H](C(=O)N[C@@H](CCCCN)C(=O)N[C@@H](Cc2ccc(O)cc2)C(=O)N[C@H](C(=O)N[C@@H](Cc2ccccc2)C(N)=O)C(C)C)NC(=O)[C@H](Cc2c[nH]c4ccccc24)NC(=O)[C@H](CCCCN)NC(=O)[C@H](Cc2c[nH]cn2)NC(=O)[C@H]([C@@H](C)O)NC(=O)[C@H](CCCNC(=N)N)NC(=O)[C@H](CO)NC3=O)NC(=O)[C@H](CCCCN(C)C)NC(=O)[C@H](CC(=O)O)NC(=O)[C@H](CC(N)=O)NC(=O)[C@H](CC(=O)O)NC(=O)[C@@H]2CCCN2C1=O [compound 313]
IC50 ([1]; Use): 190 nM | IC50 ([2]; IWQ Use Nav1.5 (μM)): 10.1 µM | IC50 ([3]; Use): 130 nM

CC[C@H](C)[C@@H]1NC(=O)[C@@H]2CSSC[C@@H]3NC(=O)[C@H](C(C)C)NC(=O)[C@H](CC(C)C)NC(=O)[C@H](CC(N)=O)NC(=O)[C@@H]4CCCN4C(=O)[C@H](CCCNC(=N)N)NC(=O)[C@H](CSSC[C@H](NC(=O)[C@@H](N)CC(=O)O)C(=O)N[C@@H](CC(C)C)C(=O)NCC(=O)N[C@@H](C)C(=O)N[C@@H](CC[S+](C)[O-])C(=O)N[C@@H](CCCNC(=N)N)C(=O)N[C@@H](CCCCN)C(=O)N2)NC(=O)[C@H](CSSC[C@@H](C(=O)N[C@@H](CCCCN)C(=O)N[C@@H](Cc2ccc(O)cc2)C(=O)N[C@H](C(=O)N[C@@H](Cc2ccccc2)C(N)=O)C(C)C)NC(=O)[C@H](Cc2c[nH]c4ccccc24)NC(=O)[C@H](CCCCN)NC(=O)[C@H](Cc2c[nH]cn2)NC(=O)[C@H]([C@@H](C)O)NC(=O)[C@H](CCCNC(=N)N)NC(=O)[C@H](CO)NC3=O)NC(=O)[C@H](CCCCN)NC(=O)[C@H](CC(=O)O)NC(=O)[C@H](CC(N)=O)NC(=O)[C@H](CC(=O)O)NC(=O)[C@@H]2CCCN2C1=O (single isomer, unassigned) [compound 791]
IC50 ([1]; use-dependent block, hNav1.7): > 5000 nM | IC50 ([2]; IonWorks Quattro, use-dependent block, hNav1.5, read-out: IWQ Use Nav1.5): 39.5 µM | IC50 ([3]; use-dependent block, hNav1.3): > 5000 nM
